{"source": "patent US20030118651A1", "about": "“Bio-compatible means for controlled drug delivery to tissue and method of use” (priority 2001, published 2003)", "assay_type": "physicochemical", "settings": "pH 7.4", "method": "The ORC-active agent combinations of example 2 and 3 can be suspended in neutral buffers at pH 7.4 at 37° C. to simulate body conditions for the purpose of studying the release of the drug in the buffer (in vitro). The test samples released Marcaine in the buffer while degrading. The ORC matrix is expected to degrade completely in 3-5 days if needed, degradation can be accelerated (terminal samples) by adding sodium bicarbonate base to the buffer solution. More particularly, for example, water bath is pre-heated to 37° C. Test samples of the ORC-Marcaine are cut into small pieces and the samples (in the range of 0.05g-01 g) are weighed and placed in labeled vials. The desired amount of buffer (e.g., 100, 50, 25 or 10 times, by weight, of the test sample) is added. For terminal samples, sufficient sodium bicarbonate is added to make a 0.15 M solution. The vials are placed in the pre-heated water bath for the desired period of time (approximately 10 min-120 hours)."}
{"substance": "oxidized regenerated cellulose [ORC matrix]", "values": [{"measurement": "time to complete degradation", "value": "3 to 5", "unit": "days"}]}
